Laboratory results as given in PubChem BioAssay (NCI).
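The compound was tested at five concentrations on cells cultured in 96-well plates, with a 48-hour exposure period. The concentration for 50% growth inhibition is given as GI50. TGI is the concentration that stops growth completely.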

How the values were obtained:
Assay in all cases: NCI-60 cell line screen, 48 h
786-0 renal = tested on: 786-0 renal
A498 renal = tested on: A498 renal
A549 NSCLC = tested on: A549 NSCLC
ACHN renal = tested on: ACHN renal
BT-549 breast = tested on: BT-549 breast
CAKI-1 renal = tested on: CAKI-1 renal
CCRF-CEM leukemia = tested on: CCRF-CEM leukemia
COLO 205 colon = tested on: COLO 205 colon
DU-145 prostate = tested on: DU-145 prostate
EKVX NSCLC = tested on: EKVX NSCLC
HCC-2998 colon = tested on: HCC-2998 colon
HCT-116 colon = tested on: HCT-116 colon
HCT-15 colon = tested on: HCT-15 colon
HL-60(TB) leukemia = tested on: HL-60(TB) leukemia
HOP-62 NSCLC = tested on: HOP-62 NSCLC
HOP-92 NSCLC = tested on: HOP-92 NSCLC
HS 578T breast = tested on: HS 578T breast
HT29 colon = tested on: HT29 colon
IGROV1 ovarian = tested on: IGROV1 ovarian
KM12 colon = tested on: KM12 colon
LOX IMVI melanoma = tested on: LOX IMVI melanoma
MALME-3M melanoma = tested on: MALME-3M melanoma
MCF7 breast = tested on: MCF7 breast
MDA-MB-231 breast = tested on: MDA-MB-231 breast
MDA-MB-435 = tested on: MDA-MB-435
MOLT-4 leukemia = tested on: MOLT-4 leukemia
NCI-H226 lung = tested on: NCI-H226 lung
NCI-H23 lung = tested on: NCI-H23 lung
NCI-H460 lung = tested on: NCI-H460 lung
NCI-H522 lung = tested on: NCI-H522 lung
NCI/ADR-RES ovarian = tested on: NCI/ADR-RES ovarian
OVCAR-3 ovarian = tested on: OVCAR-3 ovarian
OVCAR-4 ovarian = tested on: OVCAR-4 ovarian
OVCAR-5 ovarian = tested on: OVCAR-5 ovarian
OVCAR-8 ovarian = tested on: OVCAR-8 ovarian
PC-3 prostate = tested on: PC-3 prostate
RPMI-8226 leukemia = tested on: RPMI-8226 leukemia
RXF 393 renal = tested on: RXF 393 renal
SF-268 CNS = tested on: SF-268 CNS
SF-295 CNS = tested on: SF-295 CNS
SF-539 CNS = tested on: SF-539 CNS
SK-MEL-2 melanoma = tested on: SK-MEL-2 melanoma
SK-MEL-28 melanoma = tested on: SK-MEL-28 melanoma
SK-MEL-5 melanoma = tested on: SK-MEL-5 melanoma
SK-OV-3 ovarian = tested on: SK-OV-3 ovarian
SN12C renal = tested on: SN12C renal
SNB-19 CNS = tested on: SNB-19 CNS
SNB-75 CNS = tested on: SNB-75 CNS
SR leukemia = tested on: SR leukemia
SW-620 colon = tested on: SW-620 colon
T-47D breast = tested on: T-47D breast
TK-10 renal = tested on: TK-10 renal
U251 CNS = tested on: U251 CNS
UACC-257 melanoma = tested on: UACC-257 melanoma
UACC-62 melanoma = tested on: UACC-62 melanoma
UO-31 renal = tested on: UO-31 renal

SMILES: O=C(NCC(=O)N1CC[C@H](NC2CCC(O)(c3ccc(-c4ncccn4)cn3)CC2)C1)c1cccc(C(F)(F)F)c1 (some centres not stated)
- GI50 (786-0 renal): > 100 µM
- TGI (786-0 renal): > 100 µM
- GI50 (A498 renal): 24.5 µM
- TGI (A498 renal): > 100 µM
- GI50 (A549 NSCLC): > 100 µM
- TGI (A549 NSCLC): > 100 µM
- GI50 (ACHN renal): > 100 µM
- TGI (ACHN renal): > 100 µM
- GI50 (BT-549 breast): 34.9 µM
- TGI (BT-549 breast): > 100 µM
- GI50 (CAKI-1 renal): 45.7 µM
- TGI (CAKI-1 renal): > 100 µM
- GI50 (CCRF-CEM leukemia): 88.6 µM
- TGI (CCRF-CEM leukemia): > 100 µM
- GI50 (COLO 205 colon): 30.2 µM
- TGI (COLO 205 colon): > 100 µM
- GI50 (DU-145 prostate): > 100 µM
- TGI (DU-145 prostate): > 100 µM
- GI50 (EKVX NSCLC): 52.7 µM
- TGI (EKVX NSCLC): > 100 µM
- GI50 (HCC-2998 colon): > 100 µM
- TGI (HCC-2998 colon): > 100 µM
- GI50 (HCT-116 colon): 36.4 µM
- TGI (HCT-116 colon): > 100 µM
- GI50 (HCT-15 colon): 52.8 µM
- TGI (HCT-15 colon): > 100 µM
- GI50 (HL-60(TB) leukemia): 55.4 µM
- TGI (HL-60(TB) leukemia): > 100 µM
- GI50 (HOP-62 NSCLC): 95.1 µM
- TGI (HOP-62 NSCLC): > 100 µM
- GI50 (HOP-92 NSCLC): 30.4 µM
- TGI (HOP-92 NSCLC): > 100 µM
- GI50 (HS 578T breast): 48.9 µM
- TGI (HS 578T breast): > 100 µM
- GI50 (HT29 colon): 53 µM
- TGI (HT29 colon): > 100 µM
- GI50 (IGROV1 ovarian): > 100 µM
- TGI (IGROV1 ovarian): > 100 µM
- GI50 (KM12 colon): > 100 µM
- TGI (KM12 colon): > 100 µM
- GI50 (LOX IMVI melanoma): 32.3 µM
- TGI (LOX IMVI melanoma): > 100 µM
- GI50 (MALME-3M melanoma): 37.1 µM
- TGI (MALME-3M melanoma): > 100 µM
- GI50 (MCF7 breast): 41.8 µM
- TGI (MCF7 breast): > 100 µM
- GI50 (MDA-MB-231 breast): 49.5 µM
- TGI (MDA-MB-231 breast): > 100 µM
- GI50 (MDA-MB-435): > 100 µM
- TGI (MDA-MB-435): > 100 µM
- GI50 (MOLT-4 leukemia): 39.8 µM
- TGI (MOLT-4 leukemia): > 100 µM
- GI50 (NCI-H226 lung): > 100 µM
- TGI (NCI-H226 lung): > 100 µM
- GI50 (NCI-H23 lung): 52.1 µM
- TGI (NCI-H23 lung): > 100 µM
- GI50 (NCI-H460 lung): 86.5 µM
- TGI (NCI-H460 lung): > 100 µM
- GI50 (NCI-H522 lung): > 100 µM
- TGI (NCI-H522 lung): > 100 µM
- GI50 (NCI/ADR-RES ovarian): > 100 µM
- TGI (NCI/ADR-RES ovarian): > 100 µM
- GI50 (OVCAR-3 ovarian): 94.9 µM
- TGI (OVCAR-3 ovarian): > 100 µM
- GI50 (OVCAR-4 ovarian): 37.7 µM
- TGI (OVCAR-4 ovarian): > 100 µM
- GI50 (OVCAR-5 ovarian): > 100 µM
- TGI (OVCAR-5 ovarian): > 100 µM
- GI50 (OVCAR-8 ovarian): > 100 µM
- TGI (OVCAR-8 ovarian): > 100 µM
- GI50 (PC-3 prostate): 51.6 µM
- TGI (PC-3 prostate): > 100 µM
- GI50 (RPMI-8226 leukemia): 31 µM
- TGI (RPMI-8226 leukemia): > 100 µM
- GI50 (RXF 393 renal): 61.7 µM
- TGI (RXF 393 renal): > 100 µM
- GI50 (SF-268 CNS): > 100 µM
- TGI (SF-268 CNS): > 100 µM
- GI50 (SF-295 CNS): 38.2 µM
- TGI (SF-295 CNS): > 100 µM
- GI50 (SF-539 CNS): 96.5 µM
- TGI (SF-539 CNS): > 100 µM
- GI50 (SK-MEL-2 melanoma): > 100 µM
- TGI (SK-MEL-2 melanoma): > 100 µM
- GI50 (SK-MEL-28 melanoma): > 100 µM
- TGI (SK-MEL-28 melanoma): > 100 µM
- GI50 (SK-MEL-5 melanoma): 18.2 µM
- TGI (SK-MEL-5 melanoma): 46.6 µM
- GI50 (SK-OV-3 ovarian): > 100 µM
- TGI (SK-OV-3 ovarian): > 100 µM
- GI50 (SN12C renal): > 100 µM
- TGI (SN12C renal): > 100 µM
- GI50 (SNB-19 CNS): > 100 µM
- TGI (SNB-19 CNS): > 100 µM
- GI50 (SNB-75 CNS): 20.2 µM
- TGI (SNB-75 CNS): > 100 µM
- GI50 (SR leukemia): 25.4 µM
- TGI (SR leukemia): > 100 µM
- GI50 (SW-620 colon): > 100 µM
- TGI (SW-620 colon): > 100 µM
- GI50 (T-47D breast): 22.9 µM
- TGI (T-47D breast): > 100 µM
- GI50 (TK-10 renal): > 100 µM
- TGI (TK-10 renal): > 100 µM
- GI50 (U251 CNS): 91.8 µM
- TGI (U251 CNS): > 100 µM
- GI50 (UACC-257 melanoma): 40.8 µM
- TGI (UACC-257 melanoma): > 100 µM
- GI50 (UACC-62 melanoma): > 100 µM
- TGI (UACC-62 melanoma): > 100 µM
- GI50 (UO-31 renal): 52.3 µM
- TGI (UO-31 renal): > 100 µM
